# Reference: patent publication EP1911452A1, “Silicon-derivates for PET-Imaging” (Bayer Schering Pharma Aktiengesellschaft, priority 2006, dated 2008)
# Experiment: Hydrolytic stability: time dependent degree of hydrolysis of the 19F fluorosilane to the hydroxy compound at physiological pH (7.0)
# Assay type: physicochemical
# Conditions: ratio of hydrolytic halflife to radioactive halflife of the 18-F isotope (1.83 hours)
# Experimental: The time dependent degree of hydrolysis of compounds of formula I in which X is a fluorine atom of isotope 19 to compounds of formula I in which X is a hydroxy group was determined at physiological pH (7.0). From the kinetics the hydrolytic halflife (t1/2) measured in hours [h] of compounds of formula I in which X is a fluorine atom of isotope 19 were calculated (Table 1, column 2).
# The ratio of the hydrolytic halflifes of compounds of formula I in which X is a fluorine atom of isotope 19 and the radioactive halflife of the 18-F isotope (1.83 hours) is defined as relative stability (Table 1, column 3).
# After 6 hours 90% of the 18-F isotope have been decayed.
# Compounds of formula I in which X is a fluorine atom of isotope 18 are considered as useful for PET applications if the relative stability of their analogs bearing a fluorine atom of isotope 19 exceed a factor of four and if at least 50% of these compounds remain intact after 6 hours under hydrolytic conditions at pH 7.
row,Compound,rel. stability
1,"CC(C)[Si](F)(c1ccc(C(=O)O)cc1)C(C)C [Compound 5a - F, 4-(Fluoro-diisopropyl-silanyl)-benzoic acid]",6.1
2,"CC(C)[Si](F)(c1ccc(COC2CCCCO2)cc1)C(C)C (racemic) [Compound 3a - F, (RS)-Fluoro-diisopropyl-[4-(tetrahydro-pyran-2-yloxymethyl)-phenyl]-silane]",27.0
3,"F[Si](c1ccccc1)(c1ccccc1)c1ccc(CCOC2CCCCO2)cc1 (racemic) [Compound 3f - F, (RS)-Fluoro-diphenyl-{4-[2-(tetrahydro-pyran-2-yloxy)-ethyl]-phenyl}-silane]",0.04
4,"CC(C)C[Si](F)(CC(C)C)c1ccc(C(=O)O)cc1 [Compound 5g - F, 4-(Fluoro-diisobutyl-silanyl)-benzoic acid]",1.9
5,"CC(C)[Si](F)(c1cccc(CCOC2CCCCO2)c1)C(C)C (racemic) [Compound 3e - F, (RS)-Fluoro-diisopropyl-{3-[2-(tetrahydro-pyran-2-yloxy)-ethyl]-phenyl}-silane]",> 54.6
6,"CC(C)C[Si](F)(CC(C)C)c1ccc(COC2CCCCO2)cc1 (racemic) [Compound 3g - F, (RS)-Fluoro-diisobutyl-[4-(tetrahydro-pyran-2-yloxymethyl)-phenyl]-silane]",4.5
7,"CC(C)C[Si](F)(CC(C)C)c1ccc(CC(=O)O)cc1 [Compound 5h - F, [4-(Fluoro-diisobutyl-silanyl)-phenyl]-acetic acid]",4.8
8,"CC(C)C[Si](F)(CCCCC(=O)Nc1ccccc1)CC(C)C [Compound 30a - 1F, 5-(Fluoro-diisobutyl-silanyl)-pentanoic acid phenylamide]",7.5
